Assay [1] addresses T1, SMARCA2-HiBiT HeLa cells (protein which is expressed from the SMARCA2 gene) (Homo sapiens, UniProt P51531).
T1 construct: protein which is expressed from the SMARCA2 and SMARCA4 genes; host or cells: HeLa (SMARCA2-HiBiT engineered line)
The assay is described as follows: SMARCA2 degradation assay (HiBiT-fusion HeLa cell line, 24 h, luminescence). Type of assay: cell-based. The gist of the method:
(§1)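 HeLa cells carrying HiBiT-tagged SMARCA2 or SMARCA4 were seeded at 8,000 cells/well, allowed to attach overnight at 37° C., then given compounds in a 10-point dilution series (typically 10 μM to 300 pM) for 24 hours at 37° C. Remaining tagged protein was read by HiBiT lytic luminescence, and DC50s came from dose-response curves.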

Assay [2] concerns the target T2, SMARCA4-HiBiT HeLa cells (protein which is expressed from the SMARCA4 gene) (Homo sapiens, UniProt P51532).
T2 construct: protein which is expressed from the SMARCA2 and SMARCA4 genes; host or cells: HeLa (SMARCA4-HiBiT engineered line)
The assay is described as follows: SMARCA4 degradation assay (HiBiT-fusion HeLa cell line, 24 h, luminescence). Type of assay: cell-based. The gist of the method:
as §1
On the technique in general: HiBiT is a short tag that completes a luciferase, so light tracks the accessible tagged protein.

Broadly, the DC50 is the concentration at which degradation of the target reaches its halfway point. Low values mean degradation at low concentration, high ones degradation only at high concentration. The term inhibition denotes the percentage by which the read-out fell short of the control.

T2 sequence (P51532 whole entry): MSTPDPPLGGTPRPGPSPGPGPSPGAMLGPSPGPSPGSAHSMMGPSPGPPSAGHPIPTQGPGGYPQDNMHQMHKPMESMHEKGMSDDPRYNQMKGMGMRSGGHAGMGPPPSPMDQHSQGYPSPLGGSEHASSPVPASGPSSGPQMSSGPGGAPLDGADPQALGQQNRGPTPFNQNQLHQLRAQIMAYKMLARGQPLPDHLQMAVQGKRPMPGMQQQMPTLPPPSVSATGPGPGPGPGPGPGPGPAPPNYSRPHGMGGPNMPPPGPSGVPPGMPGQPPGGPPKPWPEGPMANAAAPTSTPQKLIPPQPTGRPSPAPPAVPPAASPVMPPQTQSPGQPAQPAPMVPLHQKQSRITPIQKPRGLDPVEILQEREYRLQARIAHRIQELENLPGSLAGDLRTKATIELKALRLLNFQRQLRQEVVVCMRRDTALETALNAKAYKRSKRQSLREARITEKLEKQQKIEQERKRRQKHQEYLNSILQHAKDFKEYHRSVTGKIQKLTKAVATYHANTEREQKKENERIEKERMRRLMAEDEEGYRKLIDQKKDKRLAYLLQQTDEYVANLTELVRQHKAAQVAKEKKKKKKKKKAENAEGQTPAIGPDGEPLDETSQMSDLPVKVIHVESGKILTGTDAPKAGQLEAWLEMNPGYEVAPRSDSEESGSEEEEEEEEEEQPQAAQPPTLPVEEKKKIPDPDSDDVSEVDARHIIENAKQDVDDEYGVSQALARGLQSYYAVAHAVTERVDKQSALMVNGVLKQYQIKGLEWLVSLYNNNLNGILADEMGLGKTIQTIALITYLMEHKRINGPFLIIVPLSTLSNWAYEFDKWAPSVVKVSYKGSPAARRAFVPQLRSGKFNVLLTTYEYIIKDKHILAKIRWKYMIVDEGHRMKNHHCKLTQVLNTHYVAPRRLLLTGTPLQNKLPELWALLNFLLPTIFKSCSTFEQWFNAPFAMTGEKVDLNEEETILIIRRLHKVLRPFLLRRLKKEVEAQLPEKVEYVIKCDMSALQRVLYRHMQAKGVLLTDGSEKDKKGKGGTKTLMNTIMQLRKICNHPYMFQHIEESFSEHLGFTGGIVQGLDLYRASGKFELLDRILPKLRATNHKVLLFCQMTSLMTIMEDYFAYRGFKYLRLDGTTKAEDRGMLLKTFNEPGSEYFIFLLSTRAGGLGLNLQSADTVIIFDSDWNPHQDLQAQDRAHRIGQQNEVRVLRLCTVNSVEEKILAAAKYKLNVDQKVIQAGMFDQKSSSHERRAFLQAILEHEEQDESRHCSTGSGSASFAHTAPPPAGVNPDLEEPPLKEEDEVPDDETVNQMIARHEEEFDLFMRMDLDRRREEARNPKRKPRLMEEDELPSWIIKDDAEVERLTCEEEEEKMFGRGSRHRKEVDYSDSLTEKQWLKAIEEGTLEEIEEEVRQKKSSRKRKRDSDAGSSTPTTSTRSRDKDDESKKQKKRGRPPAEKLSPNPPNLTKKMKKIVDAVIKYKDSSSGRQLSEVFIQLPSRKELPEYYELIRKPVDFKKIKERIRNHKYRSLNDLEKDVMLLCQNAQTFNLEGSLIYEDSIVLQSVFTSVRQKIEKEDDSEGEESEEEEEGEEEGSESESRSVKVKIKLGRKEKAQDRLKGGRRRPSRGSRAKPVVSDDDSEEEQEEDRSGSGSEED
T1 sequence (P51531 whole entry): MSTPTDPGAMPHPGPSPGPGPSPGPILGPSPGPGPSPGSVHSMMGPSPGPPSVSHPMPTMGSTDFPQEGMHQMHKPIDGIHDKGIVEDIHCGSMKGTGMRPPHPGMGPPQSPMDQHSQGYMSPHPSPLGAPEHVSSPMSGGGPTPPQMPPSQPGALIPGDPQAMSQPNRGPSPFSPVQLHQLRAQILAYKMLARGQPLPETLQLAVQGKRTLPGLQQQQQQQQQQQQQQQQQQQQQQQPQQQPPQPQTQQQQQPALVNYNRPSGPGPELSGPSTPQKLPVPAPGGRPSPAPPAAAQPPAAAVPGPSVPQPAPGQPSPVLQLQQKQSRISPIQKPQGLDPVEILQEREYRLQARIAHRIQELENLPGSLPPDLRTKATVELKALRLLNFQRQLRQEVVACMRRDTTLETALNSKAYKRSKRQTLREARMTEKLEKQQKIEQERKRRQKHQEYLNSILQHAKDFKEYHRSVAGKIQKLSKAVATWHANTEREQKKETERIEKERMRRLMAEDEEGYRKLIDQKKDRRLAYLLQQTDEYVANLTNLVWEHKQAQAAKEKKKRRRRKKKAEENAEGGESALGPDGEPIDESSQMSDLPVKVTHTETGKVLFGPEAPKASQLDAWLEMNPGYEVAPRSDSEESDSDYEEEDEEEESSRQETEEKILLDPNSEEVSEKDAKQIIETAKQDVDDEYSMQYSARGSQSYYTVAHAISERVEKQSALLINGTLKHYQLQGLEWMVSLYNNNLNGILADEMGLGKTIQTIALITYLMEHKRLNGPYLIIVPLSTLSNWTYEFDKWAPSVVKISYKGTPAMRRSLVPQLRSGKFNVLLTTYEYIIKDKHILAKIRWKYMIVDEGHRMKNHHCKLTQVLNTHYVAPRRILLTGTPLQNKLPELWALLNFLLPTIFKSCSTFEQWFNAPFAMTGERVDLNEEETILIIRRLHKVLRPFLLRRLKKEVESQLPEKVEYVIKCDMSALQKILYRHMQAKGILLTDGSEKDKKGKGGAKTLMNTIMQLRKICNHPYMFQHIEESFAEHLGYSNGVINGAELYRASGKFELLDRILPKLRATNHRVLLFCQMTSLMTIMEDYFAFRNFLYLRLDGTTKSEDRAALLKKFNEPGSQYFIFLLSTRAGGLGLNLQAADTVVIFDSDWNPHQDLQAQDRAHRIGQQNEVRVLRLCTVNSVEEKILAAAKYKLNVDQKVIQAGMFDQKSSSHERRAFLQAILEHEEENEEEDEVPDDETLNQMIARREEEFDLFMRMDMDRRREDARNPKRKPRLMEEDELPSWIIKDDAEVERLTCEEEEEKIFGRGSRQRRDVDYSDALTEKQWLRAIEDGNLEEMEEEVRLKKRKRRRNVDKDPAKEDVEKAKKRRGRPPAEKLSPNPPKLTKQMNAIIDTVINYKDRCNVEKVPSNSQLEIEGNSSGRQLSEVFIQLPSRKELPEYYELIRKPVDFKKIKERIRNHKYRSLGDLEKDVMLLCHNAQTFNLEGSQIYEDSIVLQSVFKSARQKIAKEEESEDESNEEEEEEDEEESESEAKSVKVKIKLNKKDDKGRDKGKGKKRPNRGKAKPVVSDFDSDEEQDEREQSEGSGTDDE

Turning to `NC/C=C/c1nccc(N2CCCN(c3cc(-c4ccccc4O)nnc3N)CC2)n1` [Compound P-113, (E)-2-(6-amino-5-(4-(2-(3-aminoprop-1-en-1-yl)pyrimidin-4-yl)-1,4-diazepan-1-yl)pyridazin-3-yl)phenol], the values for the DC50 in assay [1] and in assay [2] were 50 to 500 nM and 500 to 5000 nM, respectively. Moreover, the “SMARCA2 % Degradation @ 1 μM” value in assay [1] (@ 1 μM) is reported as “++ (++=30-70%)”. The inhibition at 1 µM in assay [2] (@ 1 μM) was less than 30%.

Turning to `Nc1nnc(-c2ccccc2O)cc1N1CCN(c2ccnc(C#CCNC(=O)c3cccc4ccoc34)n2)CC1` [Compound P-63, N-(3-(4-(4-(3-amino-6-(2-hydroxyphenyl)pyridazin-4-yl)piperazin-1-yl)pyrimidin-2-yl)prop-2-yn-1-yl)benzofuran-7-carboxamide], the DC50 in assay [1] and in assay [2] was 50 to 500 nM in each case. Besides, the “SMARCA2 % Degradation @ 1 μM” value in assay [1] (@ 1 μM) is reported as “++ (++=30-70%)”. This compound came in with an inhibition at 1 µM in assay [2] (@ 1 μM) of 30 to 70%.

Turning to `N#CC1CCN(CC#Cc2nccc(N3CCCN(c4cc(-c5ccccc5O)nnc4N)CC3)n2)CC1` [Compound P-357, 1-[3-(4-{4-[3-amino-6-(o-hydroxyphenyl)-4-pyridazinyl]-1,4-diazepan-1-yl}-2-pyrimidinyl)-2-propynyl]-4-piperidinecarbonitrile], the DC50 in assay [1] fell in the range of 50 to 500 nM; in assay [2], 500 to 5000 nM. The “SMARCA2 % Degradation @ 1 μM” value in assay [1] (@ 1 μM) is given as “++ (++=30-70%)”. The compound also showed an inhibition at 1 µM in assay [2] (@ 1 μM) of 30 to 70%.

`Nc1nnc(-c2cc(F)ccc2O)cc1N1CCCN(c2ccnc(C#CCNC(=O)c3cc4ncccn4n3)n2)CC1` [Compound P-367, N-[3-(4-{4-[3-amino-6-(5-fluoro-2-hydroxyphenyl)-4-pyridazinyl]-1,4-diazepan-1-y1}-2-pyrimidinyl)-2-propynyl]-1,4,7a-triaza-2-indenecarboxamide]: the DC50 in assay [1] and in assay [2] was 500 to 5000 nM in each case. Moreover, the “SMARCA2 % Degradation @ 1 μM” value in assay [1] (@ 1 μM) was “++ (++=30-70%)”. Also, the inhibition at 1 µM in assay [2] (@ 1 μM) was less than 30%.

For the compound `CC1(F)CCN(CC#Cc2nccc(N3CC4CCC(C3)N4c3cc(-c4ccccc4O)nnc3N)n2)C1` (stereo not drawn) [Compound P-193, o-[6-amino-5-(3-{2-[3-(3-fluoro-3-methyl-1-pyrrolidinyl)-1-propynyl]-4-pyrimidinyl}-3,8-diazabicyclo[3.2.1]oct-8-yl)-3-pyridazinyl]phenol], the half-maximal degradation concentration (DC50) in assay [1] and in assay [2] was 50 to 500 nM in each case. In assay [1] (@ 1 μM), the “SMARCA2 % Degradation @ 1 μM” value is on record as “++ (++=30-70%)”. Besides, in assay [2] (@ 1 μM), the inhibition at 1 µM is less than 30%.

For `C[C@@H]1CCN(c2cc(-c3ccccc3O)nnc2N)CCN1c1ccnc(C#CCN2C3CCC2COC3)n1` [Compound P-160, o-{5-[(R)-5-methyl-4-(2-{3-(3-oxa-8-azabicyclo[3.2.1]oct-8-yl)-1-propynyl}-4-pyrimidinyl)-1,4-diazepan-1-yl]-6-amino-3-pyridazinyl}phenol], the DC50 in assay [1] and in assay [2] was 50 to 500 nM throughout. Moreover, the “SMARCA2 % Degradation @ 1 μM” value in assay [1] (@ 1 μM) is on record as “+++ (+++=>70%)”. In assay [2] (@ 1 μM), the inhibition at 1 µM is 30 to 70%.

As for `C[C@@H]1CCN(c2cc(-c3ccccc3O)nnc2N)CCN1c1ccnc(C#CCN2C3CCCC2CC3)n1` [Compound P-228, o-{5-[(R)-4-(2-{3-(8-azabicyclo[3.2.1]oct-8-yl)-1-propynyl}-4-pyrimidinyl)-5-methyl-1,4-diazepan-1-y1]-6-amino-3-pyridazinyl}phenol], the 50% degradation concentration (DC50) in assay [1] and in assay [2] was less than 50 nM in each case. In addition, the “SMARCA2 % Degradation @ 1 μM” value in assay [1] (@ 1 μM) is “++ (++=30-70%)”. Moreover, the inhibition at 1 µM in assay [2] (@ 1 μM) was 30 to 70%.

For the compound `CC(C)(C)OC(=O)N1C2CCC1CN(CC#Cc1nccc(N3CCCN(c4cc(-c5ccccc5O)nnc4N)CC3)n1)C2` [Compound P-358, tert-butyl 3-[3-(4-{4-[3-amino-6-(o-hydroxyphenyl)-4-pyridazinyl]-1,4-diazepan-1-y1}-2-pyrimidinyl)-2-propynyl]-3,8-diazabicyclo[3.2.1]octane-8-carboxylate], the 50% degradation concentration (DC50) in assay [1] and in assay [2] was 500 to 5000 nM each time. Further, in assay [1] (@ 1 μM), the “SMARCA2 % Degradation @ 1 μM” value is listed as “++ (++=30-70%)”. In assay [2] (@ 1 μM), this compound gave an inhibition at 1 µM of 30 to 70%.

As to `Nc1nnc(-c2ccccc2O)cc1OC1CC2CN(c3ccnc(C#CCN4CCOCC4)n3)CC2C1` (stereo not drawn) [Compound P-220, o-(6-amino-5-{3-[2-(3-morpholino-1-propynyl)-4-pyrimidinyl]-3-azabicyclo[3.3.0]oct-7-yloxy}-3-pyridazinyl)phenol], the 50% degradation concentration (DC50) in assay [1] and in assay [2] was 50 to 500 nM throughout. The “SMARCA2 % Degradation @ 1 μM” value in assay [1] (@ 1 μM) is “+++ (+++=>70%)”. For the same compound, the inhibition at 1 µM in assay [2] (@ 1 μM) lay within 30 to 70%.

As to `C[C@@H]1CCN(c2cc(-c3ccccc3O)nnc2N)CCN1c1ccnc(C#CCN(C)C)c1` [Compound P-427, 0-{5-[(R)-4-{2-[3-(dimethylamino)-1-propynyl]-4-pyridyl}-5-methyl-1,4-diazepan-1-yl]-6-amino-3-pyridazinyl}phenol], the DC50 in assay [1] and in assay [2] was less than 50 nM throughout. The “SMARCA2 % Degradation @ 1 μM” value in assay [1] (1 μM) is given as “+++ (+++=>70%)”. In addition, the inhibition at 1 µM in assay [2] (1 μM) lay in the range of 30 to 70%.

In the case of `C[C@@H]1COC[C@H](C)N1CC#Cc1nccc(N2CCCN(c3cc(-c4ccccc4O)nnc3N)CC2)n1` [Compound P-318, 0-{5-[4-(2-{3-[(3R,5S)-3,5-dimethyl-4-morpholinyl]-1-propynyl}-4-pyrimidinyl)-1,4-diazepan-1-yl]-6-amino-3-pyridazinyl}phenol], the DC50 in assay [1] and in assay [2] was 50 to 500 nM each time. Besides, the “SMARCA2 % Degradation @ 1 μM” value in assay [1] (@ 1 μM) was “++ (++=30-70%)”. The same compound had an inhibition at 1 µM in assay [2] (@ 1 μM) of 30 to 70%.

`CC(C#Cc1nccc(N2CCN(c3cc(-c4ccccc4O)nnc3N)CC2)n1)NC(=O)c1cc2ncccn2n1` (stereo not drawn) [Compound P-95, N-(4-(4-(4-(3-amino-6-(2-hydroxyphenyl)pyridazin-4-yl)piperazin-1-yl)pyrimidin-2-yl)but-3-yn-2-yl)pyrazolo[1,5-a]pyrimidine-2-carboxamide]: the DC50 in assay [1] was 50 to 500 nM; in assay [2], less than 50 nM. For the same compound, the “SMARCA2 % Degradation @ 1 μM” value in assay [1] (@ 1 μM) is “+ (+=<30%)”. The inhibition at 1 µM in assay [2] (@ 1 μM) fell in the range of 30 to 70%.

Consider `Nc1nnc(-c2ccccc2O)cc1N1CCCN(c2ccnc(C#CC3CCOC3)n2)CC1` (stereo not drawn) [Compound P-340, 0-[6-amino-5-(4-{2-[2-(tetrahydro-3-furyl)ethynyl]-4-pyrimidinyl}-1,4-diazepan-1-yl)-3-pyridazinyl]phenol], for which the DC50 in assay [1] and in assay [2] was 50 to 500 nM each time. Besides, the “SMARCA2 % Degradation @ 1 μM” value in assay [1] (@ 1 μM) was “++ (++=30-70%)”. The inhibition at 1 µM in assay [2] (@ 1 μM) was in the range of 30 to 70%.

Turning to `Cc1cc(C)n2ncc(C(=O)NCC#Cc3nccc(N4CCN(c5cc(-c6ccccc6O)nnc5N)CC4)n3)c2n1` [Compound P-70, N-(3-(4-(4-(3-amino-6-(2-hydroxyphenyl)pyridazin-4-yl)piperazin-1-yl)pyrimidin-2-yl)prop-2-yn-1-yl)-5,7-dimethylpyrazolo[1,5-a]pyrimidine-3-carboxamide], the DC50 in assay [1] and in assay [2] was 50 to 500 nM each time. The “SMARCA2 % Degradation @ 1 μM” value in assay [1] (@ 1 μM) is “++ (++=30-70%)”. This compound displayed an inhibition at 1 µM in assay [2] (@ 1 μM) of 30 to 70%.

As for `Nc1nnc(-c2ccccc2O)cc1N1CCN(c2ccnc(C#CCNC(=O)c3cc4ccccc4o3)n2)CC1` [Compound P-75, N-(3-(4-(4-(3-amino-6-(2-hydroxyphenyl)pyridazin-4-yl)piperazin-1-yl)pyrimidin-2-yl)prop-2-yn-1-yl)benzofuran-2-carboxamide], the half-maximal degradation concentration (DC50) in assay [1] was 50 to 500 nM; in assay [2], less than 50 nM. Moreover, the “SMARCA2 % Degradation @ 1 μM” value in assay [1] (@ 1 μM) is listed as “++ (++=30-70%)”. The same compound gave an inhibition at 1 µM in assay [2] (@ 1 μM) of 30 to 70%.

For the origin of these results see patent US20260265238A1, “COMPOUNDS AND PHARMACEUTICAL COMPOSITIONS THAT DEGRADE SWI/SNF-RELATED MATRIX-ASSOCIATED ACTIN-DEPENDENT REGULATOR OF CHROMATIN SUBFAMILY A” (Plexium, Inc., priority 2023, published 2026).
